From publication PMC5181585, “UMAMIT14 is an amino acid exporter involved in phloem unloading in Arabidopsis roots” (Journal of Experimental Botany, 2016)

Target: T1, UMAMIT18 (Arabidopsis thaliana, UniProt Q9LPF1)
T1 construct: gene At1g44800; cDNA in pDR196-Ws, expressed in yeast 22delta10alpha
T1 sequence (Q9LPF1 1-370): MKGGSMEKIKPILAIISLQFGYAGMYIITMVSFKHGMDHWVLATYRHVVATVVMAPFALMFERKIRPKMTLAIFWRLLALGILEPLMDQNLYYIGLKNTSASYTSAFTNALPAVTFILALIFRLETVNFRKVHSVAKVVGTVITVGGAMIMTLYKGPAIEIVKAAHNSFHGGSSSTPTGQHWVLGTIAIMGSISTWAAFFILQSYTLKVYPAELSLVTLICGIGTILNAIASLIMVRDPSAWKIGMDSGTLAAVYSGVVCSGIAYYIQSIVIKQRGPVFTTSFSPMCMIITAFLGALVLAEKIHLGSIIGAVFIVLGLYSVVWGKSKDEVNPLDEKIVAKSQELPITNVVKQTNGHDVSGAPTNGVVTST
Experiment: amino acid secretion into medium by yeast, UPLC
Format: cell-based
Conditions: export, 22 h growth in minimal medium, yeast 22delta10alpha

| SMILES | amino acid secretion into medium by yeast, UPLC (Gln peak not resolved from Arg) | amino acid secretion into medium by yeast, UPLC |
| --- | --- | --- |
| NC(=O)CC[C@H](N)C(=O)O [Gln] | Gln, Val, and Ile represented a larger proportion of the secreted amino acids for UMAMIT18 | – |
| CC(C)[C@H](N)C(=O)O [Val] | – | Gln, Val, and Ile represented a larger proportion of the secreted amino acids for UMAMIT18 |
